Patent US9949475B2, “Composition comprising active ingredient, oil and ionic liquid” (priority 2011, dated 2018)
Converted amounts (≈) assume the structure as drawn. Where two headings read alike, the source gives them in different places.

Test: Solubility of agrochemical active ingredient in oil comprising ionic liquid
Type: physicochemical
Settings: thermodynamic from solid, 21° C.
Excerpt: Alternatively, the oil, which comprised the ionic liquid, was saturated with the active ingredient and the soluble fraction of active ingredient was quantified by means of HPLC. In the first line of the tables, in each case the weight ratios of oil to IL are given.

- solubility (Cetiol B oil comprising ionic liquid, 21 °C, oil or lipid, Oil/IL 60/40 weight ratio, IL N-butyl-N′-methylimidazolium dimethylphosphate, read-out: Solubility of fluxapyroxad with Cetiol ® B as oil): 43.1 mg/mL
- solubility (Cetiol B oil comprising ionic liquid, 21 °C, oil or lipid, Oil/IL 60/40 weight ratio, IL N-ethyl-N′-ethylimidazolium propionate, read-out: Solubility of fluxapyroxad with Cetiol ® B as oil): 50.8 mg/mL
- solubility (Cetiol B oil comprising ionic liquid, 21 °C, oil or lipid, Oil/IL 60/40 weight ratio, IL N-ethyl-N′-methylimidazolium acetate, read-out: Solubility of fluxapyroxad with Cetiol ® B as oil): 54.9 mg/mL
- solubility (Cetiol B oil comprising ionic liquid, 21 °C, oil or lipid, Oil/IL 60/40 weight ratio, IL N-ethyl-N′-methylimidazolium dibutylphosphate, read-out: Solubility of fluxapyroxad with Cetiol ® B as oil): 46 mg/mL
- solubility (Cetiol B oil comprising ionic liquid, 21 °C, oil or lipid, Oil/IL 60/40 weight ratio, IL N-ethyl-N′-methylimidazolium heptanoate, read-out: Solubility of fluxapyroxad with Cetiol ® B as oil): 50 mg/mL
- solubility (Cetiol B oil comprising ionic liquid, 21 °C, oil or lipid, Oil/IL 60/40 weight ratio, IL N-ethyl-N′-methylimidazolium octanoate, read-out: Solubility of fluxapyroxad with Cetiol ® B as oil): 49.5 mg/mL
- solubility (Cetiol B oil comprising ionic liquid, 21 °C, oil or lipid, Oil/IL 60/40 weight ratio, IL N-propyl-N′-propylimidazolium acetate, read-out: Solubility of fluxapyroxad with Cetiol ® B as oil): 49.6 mg/mL
- solubility (Cetiol B oil comprising ionic liquid, 21 °C, oil or lipid, Oil/IL 60/40 weight ratio, IL Tetrabutylammonium [2-(2-methoxyethoxy)ethoxy]acetate, read-out: Solubility of fluxapyroxad with Cetiol ® B as oil): 40.8 mg/mL
- solubility (Cetiol B oil comprising ionic liquid, 21 °C, oil or lipid, Oil/IL 80/20 weight ratio, IL Cholinium octanoate, read-out: Solubility of fluxapyroxad with Cetiol ® B as oil): 20.8 mg/mL
- solubility (Cetiol B oil comprising ionic liquid, 21 °C, oil or lipid, Oil/IL 80/20 weight ratio, IL N-butyl-N′-methylimidazolium dimethylphosphate, read-out: Solubility of fluxapyroxad with Cetiol ® B as oil): 29 mg/mL
- solubility (Cetiol B oil comprising ionic liquid, 21 °C, oil or lipid, Oil/IL 80/20 weight ratio, IL N-ethyl-N′-methylimidazolium dibutylphosphate, read-out: Solubility of fluxapyroxad with Cetiol ® B as oil): 31.1 mg/mL
- solubility (Cetiol B oil comprising ionic liquid, 21 °C, oil or lipid, Oil/IL 80/20 weight ratio, IL N-ethyl-N′-methylimidazolium heptanoate, read-out: Solubility of fluxapyroxad with Cetiol ® B as oil): 35.9 mg/mL
- solubility (Cetiol B oil comprising ionic liquid, 21 °C, oil or lipid, Oil/IL 80/20 weight ratio, IL N-ethyl-N′-methylimidazolium octanoate, read-out: Solubility of fluxapyroxad with Cetiol ® B as oil): 34.3 mg/mL
- solubility (Cetiol B oil comprising ionic liquid, 21 °C, oil or lipid, Oil/IL 80/20 weight ratio, IL N-propyl-N′-propylimidazolium acetate, read-out: Solubility of fluxapyroxad with Cetiol ® B as oil): 35.4 mg/mL
- solubility (Cetiol B oil comprising ionic liquid, 21 °C, oil or lipid, Oil/IL 80/20 weight ratio, IL Tetrabutylammonium [2-(2-methoxyethoxy)ethoxy]acetate, read-out: Solubility of fluxapyroxad with Cetiol ® B as oil): 27.5 mg/mL
- solubility (Cetiol B oil comprising ionic liquid, 21 °C, oil or lipid, Oil/IL 90/10 weight ratio, IL N-butyl-N′-methylimidazolium acetate, read-out: Solubility of fluxapyroxad with Cetiol ® B as oil): 23.7 mg/mL
- solubility (Cetiol B oil comprising ionic liquid, 21 °C, oil or lipid, Oil/IL 90/10 weight ratio, IL N-ethyl-N′-ethylimidazolium propionate, read-out: Solubility of fluxapyroxad with Cetiol ® B as oil): 24.2 mg/mL
- solubility (Cetiol B oil comprising ionic liquid, 21 °C, oil or lipid, Oil/IL 90/10 weight ratio, IL N-ethyl-N′-methylimidazolium acetate, read-out: Solubility of fluxapyroxad with Cetiol ® B as oil): 25.6 mg/mL
- solubility (Cetiol B oil comprising ionic liquid, 21 °C, oil or lipid, Oil/IL 90/10 weight ratio, IL Tetrabutylammonium [2-(2-methoxyethoxy)ethoxy]acetate, read-out: Solubility of fluxapyroxad with Cetiol ® B as oil): 16 mg/mL
- solubility (Cetiol B oil without ionic liquid, 21 °C, oil or lipid, 100 Oil (Cetiol B, no IL), read-out: Solubility of fluxapyroxad with Cetiol ® B as oil): 3 mg/mL (≈ 7.87 mM)
- solubility (neat Agnique AMD 12 (N,N-dimethyldodecanamide) oil, 21 °C, oil or lipid, 100 Oil (Agnique AMD 12, no IL), read-out: Solubility of fluxapyroxad with Agnique AMD 12 ® (N,N-dimethyldodecanamide, lauryl N,N-dimethylamide) as oil): 21 mg/mL (≈ 55.1 mM)
- solubility (neat N-butyl-N′-methylimidazolium acetate (ionic liquid), organic solvent or mixture, 100 IL (no oil), IL N-butyl-N′-methylimidazolium acetate, read-out: Solubility of fluxapyroxad with Agnique AMD 12 ® (N,N-dimethyldodecanamide, lauryl N,N-dimethylamide) as oil): 1 mg/mL (≈ 2.62 mM)
- solubility (neat N-ethyl-N′-ethylimidazolium propionate (ionic liquid), 21 °C, organic solvent or mixture, 100 IL (no oil), IL N-ethyl-N′-ethylimidazolium propionate, read-out: Solubility of fluxapyroxad with Solvesso ® 200 ND as oil): 45.7 mg/mL (≈ 120 mM)
- solubility (neat N-ethyl-N′-methylimidazolium acetate (ionic liquid), organic solvent or mixture, 100 IL (no oil), IL N-ethyl-N′-methylimidazolium acetate, read-out: Solubility of fluxapyroxad with Agnique AMD 12 ® (N,N-dimethyldodecanamide, lauryl N,N-dimethylamide) as oil): 1 mg/mL (≈ 2.62 mM)
- solubility (neat Solvesso 200 ND (oil), 21 °C, oil or lipid, 100 Oil (Solvesso 200 ND, no IL), read-out: Solubility of fluxapyroxad with Solvesso ® 200 ND as oil): 1.5 mg/mL (≈ 3.93 mM)
- solubility (neat cholinium octanoate (ionic liquid), 21 °C, organic solvent or mixture, 100 IL (no oil), IL Cholinium octanoate, read-out: Solubility of fluxapyroxad with Cetiol ® B as oil): 5 mg/mL (≈ 13.1 mM)
- solubility (neat ionic liquid (no oil), 21 °C, organic solvent or mixture, 100 IL (no oil), IL N-butyl-N′-methylimidazolium acetate, read-out: Solubility of fluxapyroxad with Cetiol ® B as oil): 42.4 mg/mL (≈ 111 mM)
- solubility (neat ionic liquid (no oil), 21 °C, organic solvent or mixture, 100 IL (no oil), IL N-butyl-N′-methylimidazolium dimethylphosphate, read-out: Solubility of fluxapyroxad with Cetiol ® B as oil): 5 mg/mL (≈ 13.1 mM)
- solubility (neat ionic liquid (no oil), 21 °C, organic solvent or mixture, 100 IL (no oil), IL N-ethyl-N′-ethylimidazolium propionate, read-out: Solubility of fluxapyroxad with Cetiol ® B as oil): 45.7 mg/mL (≈ 120 mM)
- solubility (neat ionic liquid (no oil), 21 °C, organic solvent or mixture, 100 IL (no oil), IL N-ethyl-N′-methylimidazolium acetate, read-out: Solubility of fluxapyroxad with Cetiol ® B as oil): 47.2 mg/mL (≈ 124 mM)
- solubility (neat ionic liquid (no oil), 21 °C, organic solvent or mixture, 100 IL (no oil), IL N-ethyl-N′-methylimidazolium dibutylphosphate, read-out: Solubility of fluxapyroxad with Cetiol ® B as oil): 9.5 mg/mL (≈ 24.9 mM)
- solubility (neat ionic liquid (no oil), 21 °C, organic solvent or mixture, 100 IL (no oil), IL N-ethyl-N′-methylimidazolium heptanoate, read-out: Solubility of fluxapyroxad with Cetiol ® B as oil): 26.9 mg/mL (≈ 70.5 mM)
- solubility (neat ionic liquid (no oil), 21 °C, organic solvent or mixture, 100 IL (no oil), IL N-ethyl-N′-methylimidazolium octanoate, read-out: Solubility of fluxapyroxad with Cetiol ® B as oil): 20.8 mg/mL (≈ 54.5 mM)
- solubility (neat ionic liquid (no oil), 21 °C, organic solvent or mixture, 100 IL (no oil), IL N-propyl-N′-propylimidazolium acetate, read-out: Solubility of fluxapyroxad with Cetiol ® B as oil): 36.7 mg/mL (≈ 96.2 mM)
- solubility (neat ionic liquid (no oil), 21 °C, organic solvent or mixture, 100 IL (no oil), IL Tetrabutylammonium [2-(2-methoxyethoxy)ethoxy]acetate, read-out: Solubility of fluxapyroxad with Cetiol ® B as oil): 9.5 mg/mL (≈ 24.9 mM)
- solubility (neat ionic liquid (no oil), organic solvent or mixture, 100 IL (no oil), IL N-ethyl-N′-methylimidazolium isononanoate, read-out: Solubility of fluxapyroxad with Agnique AMD 12 ® (N,N-dimethyldodecanamide, lauryl N,N-dimethylamide) as oil): 9.5 mg/mL (≈ 24.9 mM)
- solubility (oil or lipid, Oil/IL 90/10 weight ratio, IL N-butyl-N′-methylimidazolium acetate, read-out: Solubility of fluxapyroxad with Agnique AMD 12 ® (N,N-dimethyldodecanamide, lauryl N,N-dimethylamide) as oil): 36 mg/mL
- solubility (oil/ionic liquid mixture, oil or lipid, Oil/IL 90/10 weight ratio, IL N-ethyl-N′-methylimidazolium isononanoate, read-out: Solubility of fluxapyroxad with Agnique AMD 12 ® (N,N-dimethyldodecanamide, lauryl N,N-dimethylamide) as oil): 32 mg/mL
- solubility (organic solvent or mixture, 100 IL (no oil), IL Tetrabutylammonium [2-(2-methoxyethoxy)ethoxy]acetate, read-out: Solubility of fluxapyroxad with Agnique AMD 12 ® (N,N-dimethyldodecanamide, lauryl N,N-dimethylamide) as oil): 9.5 mg/mL (≈ 24.9 mM)
Compound: Cn1cc(C(=O)Nc2ccccc2-c2cc(F)c(F)c(F)c2)c(C(F)F)n1 [fluxapyroxad, 3-(difluoromethyl)-1-methyl-N-(3′,4′,5′-trifluorobiphenyl-2-yl)pyrazole-4-carboxamide]
